Results taken from paper PMC1166555, “The therapeutic effect of the neuropeptide hormone somatostatin on Schistosoma mansoni caused liver fibrosis” (BMC Infectious Diseases, 2005).
Like-named read-outs stand apart in the source and are kept apart here.

Legend:
S. mansoni = S. mansoni infected animals; cited from earlier work
Description: Taken together we have elucidated the therapeutic capacity of somatostatin in reducing hepatic fibrosis. This report in fact confirms a previous report by Mansy, where using a somatostatin synthetic analog octreotide in S. mansoni infected animals, a reduction in hepatic fibrosis was noted. Since octreotide is limited in binding to somatostatin receptors, our results with natural somatostatin that binds to all 5 somatostatin receptors equally well assures us of the anti fibrotic capacities of this neuropeptide hormone, and points to its potential use in human conditions.

[1] = dogs, animal studies; cited from earlier work
Description: Somatostatin has a very short half-life of 1–3 minutes in man. […] To determine the pharmacokinetic profile in outbred Swiss mice, 25 μg of somatostatin was administered per mouse via th ...

[2] = Circulating somatostatin levels in plasma at sacrifice, one week after therapy (RIA); type: in vivo, Swiss mice; conditions: for level at 168 h: Swiss, mouse, plasma
Description: (§1) Groups of Swiss mice were infected with 100 S. mansoni cercariae each as mentioned above. Age matched mice were maintained as uninfected control animals. Groups of 10 mice composed Group 1 that were maintained till 10 weeks following infection, other 10 mice composed Group 2 that were maintained till 14 weeks of infection.
(§2) At such times animals of Groups 1 and 2 were treated with somatostatin (Somatostatine-ucb®), that was kindly gifted by UCB Pharma, Brussels. Somatostatin was administered in two regimens – a one-day treatment or a two-day treatment. One day treatment consisted of 3 doses of 30 μg somatostatin each, two day treatment was the double of this dose, that is 6 doses of 30 μg somatostatin to each animal. Somatostatin was administered intravenously via the caudal vein in the tail and intraperitoneally at regular intervals during the day. One week after the last somatostatin administration, mice were killed, the weight of the animal, liver and spleen were noted, plasma was extracted and stored as mentioned above, and the liver frozen immediately in liquid nitrogen and then at -80°C. The overall planning is depicted in Table 1. Untreated animals of the acute and chronic stage were also sacrificed at the respective times together with their treated counterparts. Research protocols involving rodents received ethical clearance by the University of Antwerp ethical committee.
(§3) The measurement of somatostatin concentrations in the Swiss mice plasma was carried out in the laboratory of Gastro-intestinal Hormones, at Gasthuisberg, K.U. Leuven, by means of a radio-immuno assay (RIA). The RIA was performed by incubating the samples with 1.7 pM 3-[^125I] iodotyrosyl^11 somatostatin-14 (specific activity 2000 Ci/mmol, Amersham Pharmacia Biotech, Buckinghamshire, UK) and a rabbit antibody against human SOM [1-14] in a 50 mM sodium phosphate buffer (pH 7.4, 0.25% EDTA, 0.5% charcoal-BSA, 500 U/ml Trasylol) for at least two days at 4°C. At the end of the incubation period the SOM bound to the antibody was separated from the free SOM by adding 500 μl dextran-charcoal followed by centrifugation for 15 min at 3000 rpm. Both fractions were counted in a gamma counter and the results were read from a standard curve (0–250 pg/ml) included in the RIA. The minimal detectable dose was 2.5 pg/ml.

[3] = Pharmacokinetic profile of somatostatin in outbred Swiss mice (plasma, RIA); type: in vivo; conditions: male Swiss mice; for level at 10 min: Swiss (outbred), 25 ug per mouse, 10 minutes post injection, plasma
Description: Separate groups of male Swiss mice were injected with 25 μg of somatostatin (somatostatin-ucb®, UCB Pharma, Brussels) intraperitoneally (in the abdomen) or intravenously (in the caudal vein in the tail). At defined moments after injection (10, 20, 40, 60 minutes) the animals were anaesthetized with Nembutal® (60 mg/kg). The thoracic cavity was cut open and blood collected from the right ventricle of the heart into chilled syringes containing EDTA (1 mg/ml) and Aprotinin (500 KIU/ml blood). The collected blood was centrifuged at 3000 rpm for 15 minutes at 0°C. The plasma was immediately frozen at -80°C freezer. Untreated naïve mice were also bled to ascertain background levels of somatostatin.
as §3
Somatostatin has a very short half-life of 1–3 minutes in man. […] To determine the pharmacokinetic profile in outbred Swiss mice, 25 μg of somatostatin was administered per mouse via the intraperitoneal or intravenous route. To assess the break down in these mice, plasma was collected at regular time intervals and circulating somatostatin levels assayed (Figure 2). At 10 minutes post injection somatostatin levels fall to 30233 pg/ml (IP) and 17413 pg/ml (IV).

[4] = cited from earlier work
[5] = Liver, spleen and total body weight after somatostatin treatment; type: in vivo, Swiss mice
Description: as §1, §2
All animals of Groups I and II were controlled for liver, spleen and total body weight, before sacrifice. The adult worms were recovered from the hepatic portal system and the liver by perfusion with citrate saline (0.85% sodium chloride; 1.5% sodium citrate). The livers were cut out and snap frozen in liquid nitrogen. For cyosectioning, liver fragments were embedded in Tissue-Tek OCT compound, 4 μm thick transverse sections were cut on a cryostat, mounted on slides coated with 0.1% ploy-L-lysine and stored at -20°C until use. To study parasite egg count, hepatocyte status, granuloma size and cellularity, series of sections were stained with Haematoxylin-eosin stain.

[6] = Toxicity of somatostatin administration in the study mice; type: in vivo; conditions: Swiss mice, 90 μg/24 hours, mice about 40 g
Description: as §2
The favorable metabolic profile of somatostatin is further supported by the fact that this compound has a very short half-life, and thus any undesirable effects may be rapidly reversed. In our experiment we have used 90 μg/24 hours in the Swiss mice that weighs about 40 g. […]

[7] = rats; cited from earlier work
[8] = studies in mice; cited from earlier work
Description: The favorable metabolic profile of somatostatin is further supported by the fact that this compound has a very short half-life, and thus any undesirable effects may be rapidly reversed. In our experiment we have used 90 μg/24 hours in the Swiss mice that weighs about 40 g. In humans the therapeutic dose is 3.5 μg/kg/hour or 6 mg/24 h for a 75 kg person. A comparison of these values tells ...

[9] = acute (wk 10) infected mice, 1 day SOM treatment, one week post treatment, RIA, untreated 297.3 ± 37.24
[10] = acute (wk 10) infected mice, 2 day SOM treatment, one week post treatment, RIA, untreated 297.3 ± 37.24, p = 0.28
[11] = chronic (wk 14) infected mice, 1 day SOM treatment, one week post treatment, RIA, untreated 206.1 ± 13.30
[12] = chronic (wk 14) infected mice, 2 day SOM treatment, one week post treatment, RIA, untreated 206.1 ± 13.30, p = 0.06 (BL)
[13] = uninfected mice (17 wks.), 2 day SOM treatment, Group 1, RIA
[14] = uninfected mice (21 wks.), 2 day SOM treatment, Group 2, RIA

octreotide
hepatic fibrosis (S. mansoni): reduction

C[C@H](N)C(=O)NCC(=O)N[C@H]1CSSC[C@@H](C(=O)O)NC(=O)[C@H](CO)NC(=O)[C@H]([C@@H](C)O)NC(=O)[C@H](Cc2ccccc2)NC(=O)[C@H]([C@@H](C)O)NC(=O)[C@H](CCCCN)NC(=O)[C@H](Cc2c[nH]c3ccccc23)NC(=O)[C@H](Cc2ccccc2)NC(=O)[C@H](Cc2ccccc2)NC(=O)[C@H](CC(N)=O)NC(=O)[C@H](CCCCN)NC1=O [somatostatin]
plasma profile / half-life compared with man [1]: same profile | level at 168 h [2, 9]: 0.24 ± 0.0213 ng/mL | level at 168 h [2, 10]: 0.234 ± 0.0236 ng/mL | level at 168 h [2, 11]: 0.226 ± 0.00541 ng/mL | level at 168 h [2, 12]: 0.248 ± 0.0131 ng/mL | level at 168 h [2, 13]: 0.137 ± 0.0117 ng/mL | level at 168 h [2, 14]: 0.152 ± 0.0415 ng/mL | level at 168 h ([2]; uninfected mice, 1 day SOM treatment, Group 2, RIA): 0.132 ± 0.0193 ng/mL | somatostatin level in plasma [2, 9]: 240.3 pg/mL | somatostatin level in plasma [2, 10]: 234.2 pg/mL | somatostatin level in plasma [2, 11]: 226.3 pg/mL | somatostatin level in plasma [2, 12]: 247.9 pg/mL | somatostatin level in plasma [2, 13]: 136.9 pg/mL | somatostatin level in plasma [2, 14]: 151.6 pg/mL | level at 10 min ([3]; ip, 25 μg somatostatin per mouse intraperitoneally, read-out: circulating somatostatin level in plasma at 10 minutes post injection (IP)): 30.2 ng/mL | level at 10 min ([3]; iv, 25 μg somatostatin per mouse intravenously (caudal vein), read-out: circulating somatostatin level in plasma at 10 minutes post injection (IV)): 17.4 ng/mL | circulating somatostatin level after one hour of injection ([3]; 25 μg per mouse, IP or IV, one hour after injection): reaches baseline control levels | time to reach plasma plateau ([4]; healthy volunteers, intravenous infusion 250 μg/hour or 6 mg/24 hours): ≤ 15 min | plasma plateau level ([4]; healthy volunteers, intravenous infusion of therapeutic dose (250 μg/hour or 6 mg/24 hours)): 300 to 3000 pg/mL | half-life ([4]; in man): 1 to 3 min | change in liver weight ([5]; acute and chronic infected animals after 2 days of somatostatin treatment vs untreated, p = 0.19, 0.90): no significant change | change in spleen weight ([5]; acute and chronic infected animals after 2 days somatostatin treatment vs untreated, p = 0.28, 0.73): no significant changes | change in total body weight ([5]; acute or chronic infected animals after somatostatin treatment): no significant changes | toxicity of somatostatin administration [6]: little toxicity | time stable in whole blood [7]: up to 30 minutes | LD50 [8]: ~10,000 times the acute therapeutic dose used in humans
